According to the supplement of paper PMC10307832:

What was measured:
Test in all cases: relative viability (nuclei count vs DMSO), 5 days (fraction); higher = more cells survive
CAP-232 + Dasatinib = compound: C[C@H]([C@@H](C(=O)N)NC(=O)[C@@H]1CSSC[C@@H](C(=O)N[C@H](C(=O)N[C@@H](C(=O)N[C@H](C(=O)N1)CCCCN)CC2=CNC3=CC=CC=C32)CC4=CC=C(C=C4)O)NC(=O)[C@@H](CC5=CC=CC=C5)N)O [CAP-232] + Cc1nc(Nc2ncc(C(=O)Nc3c(C)cccc3Cl)s2)cc(N2CCN(CCO)CC2)n1 [Dasatinib] (partner 0.075 µM)
Method in brief: (§1)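 Each reported value is a median over duplicate plates. It expresses relative viability: treated-well nuclei count divided by vehicle-well nuclei count. Lung cancer cell lines in 1536-well plates were dosed by pin tool a day after seeding, alone with one drug or with a fixed anchor-drug dose plus five library-drug doses (not always all listed) in √10 steps, and nuclei were counted after 5 days.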

CAP-232 + Vorinostat = compound: C[C@H]([C@@H](C(=O)N)NC(=O)[C@@H]1CSSC[C@@H](C(=O)N[C@H](C(=O)N[C@@H](C(=O)N[C@H](C(=O)N1)CCCCN)CC2=CNC3=CC=CC=C32)CC4=CC=C(C=C4)O)NC(=O)[C@@H](CC5=CC=CC=C5)N)O [CAP-232] + O=C(CCCCCCC(=O)Nc1ccccc1)NO [Vorinostat] (partner 1 µM)
Method in brief: as §1

CAP-232 + Olaparib = compound: C[C@H]([C@@H](C(=O)N)NC(=O)[C@@H]1CSSC[C@@H](C(=O)N[C@H](C(=O)N[C@@H](C(=O)N[C@H](C(=O)N1)CCCCN)CC2=CNC3=CC=CC=C32)CC4=CC=C(C=C4)O)NC(=O)[C@@H](CC5=CC=CC=C5)N)O [CAP-232] + O=C(c1cc(Cc2n[nH]c(=O)c3ccccc23)ccc1F)N1CCN(C(=O)C2CC2)CC1 [Olaparib] (partner 8 µM)
Method in brief: as §1

CAP-232 + Tozasertib = compound: C[C@H]([C@@H](C(=O)N)NC(=O)[C@@H]1CSSC[C@@H](C(=O)N[C@H](C(=O)N[C@@H](C(=O)N[C@H](C(=O)N1)CCCCN)CC2=CNC3=CC=CC=C32)CC4=CC=C(C=C4)O)NC(=O)[C@@H](CC5=CC=CC=C5)N)O [CAP-232] + Cc1cc(Nc2cc(N3CCN(C)CC3)nc(Sc3ccc(NC(=O)C4CC4)cc3)n2)n[nH]1 [Tozasertib] (partner 0.1 µM)
Method in brief: as §1

CAP-232 + Linsitinib = compound: C[C@H]([C@@H](C(=O)N)NC(=O)[C@@H]1CSSC[C@@H](C(=O)N[C@H](C(=O)N[C@@H](C(=O)N[C@H](C(=O)N1)CCCCN)CC2=CNC3=CC=CC=C32)CC4=CC=C(C=C4)O)NC(=O)[C@@H](CC5=CC=CC=C5)N)O [CAP-232] + C[C@]1(O)C[C@@H](c2nc(-c3ccc4ccc(-c5ccccc5)nc4c3)c3c(N)nccn32)C1 [Linsitinib] (partner 1 µM)
Method in brief: as §1

Cell Line | relative viability (CAP-232 + Dasatinib; first compound 0.4 µM) | relative viability (CAP-232 + Dasatinib; first compound 1.265 µM) | relative viability (CAP-232 + Dasatinib; first compound 4 µM) | relative viability (CAP-232 + Dasatinib; first compound 12.65 µM) | relative viability (CAP-232 + Vorinostat; first compound 0.4 µM) | relative viability (CAP-232 + Vorinostat; first compound 1.265 µM) | relative viability (CAP-232 + Vorinostat; first compound 4 µM) | relative viability (CAP-232 + Vorinostat; first compound 12.65 µM) | relative viability (CAP-232 + Olaparib; first compound 0.4 µM) | relative viability (CAP-232 + Olaparib; first compound 1.265 µM) | relative viability (CAP-232 + Olaparib; first compound 4 µM) | relative viability (CAP-232 + Olaparib; first compound 12.65 µM) | relative viability (CAP-232 + Tozasertib; first compound 0.4 µM) | relative viability (CAP-232 + Tozasertib; first compound 1.265 µM) | relative viability (CAP-232 + Tozasertib; first compound 4 µM) | relative viability (CAP-232 + Tozasertib; first compound 12.65 µM) | relative viability (CAP-232 + Linsitinib; first compound 0.4 µM) | relative viability (CAP-232 + Linsitinib; first compound 1.265 µM) | relative viability (CAP-232 + Linsitinib; first compound 4 µM) | relative viability (CAP-232 + Linsitinib; first compound 12.65 µM)
COR-L 105 | 0.337 | 0.352 | 0.273 | 0.249 | 0.871 | 0.719 | 1 | 0.637 | 0.733 | 0.61 | 0.712 | 0.571 | 0.346 | 0.387 | 0.379 | 0.323 | 0.963 | 0.816 | 1.08 | 0.61
EKVX | 0.457 | 0.605 | 0.499 | 0.509 | 1.01 | 0.74 | 0.818 | 0.749 | 0.901 | 0.95 | 0.993 | 0.804 | 0.352 | 0.376 | 0.422 | 0.31 | 1.01 | 1.07 | 0.972 | 0.737
EMC-BAC-2 | 0.36 | 0.31 | 0.353 | 0.28 | 0.818 | 0.395 | 0.483 | 0.383 | 0.52 | 0.47 | 0.469 | 0.398 | 0.304 | 0.276 | 0.289 | 0.247 | 0.785 | 0.796 | 0.821 | 0.774
EPLC-272H | 0.402 | 0.306 | 0.321 | 0.386 | – | 0.615 | 0.545 | 0.158 | – | 0.935 | 0.761 | 0.31 | 0.25 | 0.182 | 0.288 | 0.389 | 1.33 | 1.02 | 1.3 | 1.09
H3255 | 0.352 | 0.353 | 0.455 | 0.338 | 0.923 | – | 0.7 | 0.726 | 0.569 | 0.587 | 0.552 | 0.433 | 0.612 | 0.733 | 0.791 | 0.893 | 0.922 | 0.924 | 1.16 | 0.916
HARA | 0.266 | 0.256 | 0.305 | 0.27 | 0.497 | 0.487 | 0.598 | 0.432 | 0.823 | 0.784 | 0.865 | 0.609 | 0.0986 | 0.0955 | 0.144 | 0.0866 | 0.907 | 0.989 | 1.14 | 0.836
HCC-15 | 0.629 | 0.601 | 0.693 | 0.262 | 0.825 | 0.858 | 0.959 | 0.61 | 0.65 | 0.711 | 0.737 | 0.55 | 0.378 | 0.329 | 0.382 | 0.435 | 0.853 | 0.894 | 0.912 | 0.805
HCC-78 | 0.431 | 0.392 | 0.523 | 0.363 | 0.47 | 0.489 | 0.388 | 0.441 | 0.852 | 0.863 | 1.08 | 0.924 | 0.257 | 0.405 | 0.493 | 0.492 | 0.53 | 0.559 | 0.371 | 0.408
HCC-366 | 0.71 | 0.568 | 0.771 | 0.685 | 0.32 | 0.345 | 0.418 | 0.323 | 0.4 | 0.383 | 0.289 | 0.299 | 0.132 | 0.106 | 0.108 | 0.078 | 0.745 | 0.628 | 0.824 | 0.537
HCC-827 | 0.312 | 0.302 | 0.312 | 0.23 | 0.888 | 0.832 | 0.883 | 0.891 | 0.699 | 0.627 | 0.622 | 0.672 | 0.525 | 0.41 | 0.417 | 0.484 | 0.911 | 0.893 | 0.921 | 0.959
HOP-62 | 0.703 | 0.667 | 0.655 | 0.547 | 0.589 | 0.484 | 0.676 | 0.543 | 1.08 | 0.388 | 0.604 | 0.709 | 0.347 | 0.388 | 0.387 | 0.406 | 0.776 | – | 0.954 | 0.946
LC-2-ad | 0.907 | 0.525 | 0.547 | 0.26 | 0.734 | 0.753 | 0.723 | 0.698 | 0.726 | 0.738 | 0.768 | 0.7 | 0.518 | 0.478 | 0.439 | 0.267 | 0.84 | 0.847 | 0.766 | 0.807
LCLC-97TM1 | 0.896 | 0.889 | 0.82 | 0.851 | 0.876 | 0.764 | 1.08 | 0.995 | 0.418 | 0.421 | 0.346 | 0.438 | 0.22 | 0.189 | 0.204 | 0.194 | 0.148 | 0.21 | 0.218 | 0.18
LCLC-103H | 0.528 | 0.455 | 0.499 | 0.403 | 0.875 | 0.729 | 0.827 | 0.825 | 0.882 | 0.752 | 0.733 | 0.751 | 0.544 | 0.47 | 0.479 | 0.572 | 1.13 | 1.08 | 1.13 | 0.946
LK-2 | 0.295 | 0.133 | 0.202 | 0.201 | 0.277 | 0.249 | 0.275 | 0.298 | 0.762 | 0.834 | 0.702 | 0.811 | 0.147 | 0.199 | 0.163 | 0.147 | 0.463 | 0.836 | 0.517 | 0.389
